Laboratory results: US20230054857A1, “FLAVONOID COMPOSITIONS AND RELATED USES” (Firmenich SA, priority 2020, published 2023)

What was measured:
Format in all cases: physicochemical
[1] = Stability of supersaturated phloretin solution (60 ppm): crystallization onset and final concentration
Procedure: To assess stability performance, the solution concentration of rhoifolin was determined over time. At specific time points 4 g of the solution were sampled, filtered and mixed with 1 g of acetonitrile. The solution was injected into a Vanquish UHPLC from Thermo Scientific coupled with a UV detector. The column was an Accucore Vanquish C18+(1.5 μm, 2.1×100 mm), eluted with a mixture of acetonitrile and water at 0.3 mL/min. The elution protocol was as follows: 5% acetonitrile (3 minutes), followed by a gradient from 5% to 80% of acetonitrile in 10 minutes. The corresponding peak of Rhoifolin was integrated, and the concentration was calculated based on a previously established calibration curve. The onset of crystallization is expressed as the point where the solution concentration passes below 95% of its initial value of 100%. The value was obtained by algorithmic curve fitting. […] In this example, and throughout “d” refers to days. Aqueous solutions of Berry extract were prepared at a concentration of 25 ppm, 50 ppm, 75 ppm, and 100 ppm by dissolving dry Berry extract in 99 g of buffer solution (citrate buffer, 100 mM, pH 2.8, 0.2% sodium benzoate). Then 1 gram of stock solution of phloretin in PG at 6000 ppm was added and mixed quickly with the aqueous phase. The samples were stored at 8° C., and aliquots were removed over the course of three months. A control solution of phloretin without Berry extract was also prepared. […] Aqueous solutions were prepared in 99 gram of buffer solution (citrate buffer, 100 mM, pH 2.8, 0.2% sodium benzoate) with saponin. Then 1 gram of stock solution of phloretin in PG at 6000 ppm was added and mixed quickly with the aqueous phase. The samples stored at 8° C., and aliquots were removed over the course of 5 months. A control solution of phloretin without saponin was prepared. The concentration of saponin was 100 ppm. […] Saponin is Quillaja P (Firmenich SA).

[2] = Stability of supersaturated naringenin solution (60 ppm): crystallization onset and final concentration
Procedure: To assess stability performance, the solution concentration of rhoifolin was determined over time. At specific time points 4 g of the solution were sampled, filtered and mixed with 1 g of acetonitrile. The solution was injected into a Vanquish UHPLC from Thermo Scientific coupled with a UV detector. The column was an Accucore Vanquish C18+(1.5 μm, 2.1×100 mm), eluted with a mixture of acetonitrile and water at 0.3 mL/min. The elution protocol was as follows: 5% acetonitrile (3 minutes), followed by a gradient from 5% to 80% of acetonitrile in 10 minutes. The corresponding peak of Rhoifolin was integrated, and the concentration was calculated based on a previously established calibration curve. The onset of crystallization is expressed as the point where the solution concentration passes below 95% of its initial value of 100%. The value was obtained by algorithmic curve fitting. […] In this example, and throughout “d” refers to days. Aqueous solutions of Berry extract were prepared at a concentration of 25 ppm, 50 ppm, 75 ppm, and 100 ppm by dissolving dry Berry extract in 99 g of buffer solution (citrate buffer, 100 mM, pH 2.8, 0.2% sodium benzoate). Then 1 gram of stock solution of naringenin in PG at 6000 ppm was added and mixed quickly with the aqueous phase. The samples were stored at 8° C., and aliquots were removed over the course of 40 days. A control solution of naringenin without Berry extract was also prepared. […] Aqueous solutions of Berry extract were prepared at a concentration of 100 ppm by dissolving dry Berry extract in 99 g of buffer solution (citrate buffer, 100 mM, pH 2.8, 0.2% sodium benzoate) with various additional additives. Then 1 gram of stock solution of naringenin in PG at 6000 ppm was added and mixed quickly with the aqueous phase. The samples were stored at 8° C., and aliquots were removed over the course of five months. A control solution of naringenin without Berry extract or additional additive was also prepared. A solution with Berry extract, but no additional additive was also prepared. The concentration of the additional additives is 100 ppm in each case. […] Saponin is Quillaja P (Firmenich SA). Aqueous solutions of black rice extracts were prepared at a concentration of 100 ppm by dissolving dry black rice extract in 99 g of buffer solution (citrate buffer, 100 mM, pH 2.8, 0.2% sodium benzoate) with various additional additives. Then 1 gram of stock solution of naringenin in PG at 6000 ppm was added and mixed quickly with the aqueous phase. The samples were stored at 8° C., and aliquots were removed over the course of five months. A control solution of naringenin without black rice extract or additional additive was also prepared. A solution with black rice extract, but no additional additive was also prepared. The concentration of the additional additives is 100 ppm in each case. […] Saponin is Quillaja P (Firmenich SA). Aqueous solutions were prepared in 99 gram of buffer solution (citrate buffer, 100 mM, pH 2.8, 0.2% sodium benzoate) with various additives. Then 1 gram of stock solution of naringenin in PG at 6000 ppm was added and mixed quickly with the aqueous phase. The samples were stored at 8° C., and aliquots were removed over the course of 5 months. A control solution of naringenin without additive was prepared. The concentration of the additives is 100 ppm in each case. […] Saponin is Quillaja P (Firmenich SA). Aqueous solutions of Berry extract were prepared at a concentration of 25 ppm by dissolving dry Berry extract in 99 g of buffer solution (citrate buffer, 100 mM, pH 2.8, 0.2% sodium benzoate) with various amounts of added saponin. Then 1 gram of stock solution of naringenin in PG at 6000 ppm was added and mixed quickly with the aqueous phase. The samples were stored at 8° C., and aliquots were removed over the course of five months. A control solution of naringenin without Berry extract or additional additive was also prepared. A solution with Berry extract, but no additional additive was also prepared. […]

[3] = Stability of supersaturated rhoifolin solution (20 ppm): solution concentration over time by UHPLC, onset of crystallization; settings: for 50% / Fin. Conc. (ppm) / Onset / 50% (d), days for 50% crystallization of rhoifolin: room temperature, 40 days
Procedure: Aqueous solutions of various anthocyanin extracts were prepared at concentrations of 100 ppm, 200 ppm, and 300 ppm by dissolving dry anthocyanin extract in 99 g of buffer solution (citrate buffer, 100 mM, pH 2.8, 0.2% sodium benzoate). Then 1 gram of stock solution of rhoifolin in propylene glycol (PG) at 2000 ppm was added and mixed quickly with the aqueous phase. The samples were left at room temperature, and aliquots were removed over the course of three months. A control solution of rhoifolin without anthocyanin was also prepared.
To assess stability performance, the solution concentration of rhoifolin was determined over time. At specific time points 4 g of the solution were sampled, filtered and mixed with 1 g of acetonitrile. The solution was injected into a Vanquish UHPLC from Thermo Scientific coupled with a UV detector. The column was an Accucore Vanquish C18+(1.5 μm, 2.1×100 mm), eluted with a mixture of acetonitrile and water at 0.3 mL/min. The elution protocol was as follows: 5% acetonitrile (3 minutes), followed by a gradient from 5% to 80% of acetonitrile in 10 minutes. The corresponding peak of Rhoifolin was integrated, and the concentration was calculated based on a previously established calibration curve. The onset of crystallization is expressed as the point where the solution concentration passes below 95% of its initial value of 100%. The value was obtained by algorithmic curve fitting. […] In this example, and throughout “d” refers to days.
Aqueous solutions of black rice extract were prepared at a concentration of 100 ppm by dissolving dry black rice extract in 99 g of buffer solution (citrate buffer, 100 mM, pH 2.8, 0.2% sodium benzoate) with various additional additives. Then 1 gram of stock solution of rhoifolin in PG at 2000 ppm was added and mixed quickly with the aqueous phase. The samples were left at room temperature, and aliquots were removed over the course of 40 days. A control solution of rhoifolin without black rice or additional additives was also prepared. A solution with black rice, but no additional additive was also prepared. The concentration of the additional additives is 100 ppm in each case. […] Saponin is Quillaja P (Firmenich SA).
Aqueous solutions were prepared in 99 gram of buffer solution (citrate buffer, 100 mM, pH 2.8, 0.2% sodium benzoate) with various additives. Then 1 gram of stock solution of rhoifolin in PG at 2000 ppm was added and mixed quickly with the aqueous phase. The samples were left at room temperature, and aliquots were removed over the course of 40 days. A control solution of rhoifolin without additive was prepared. The concentration of the additives is 100 ppm in each case. […] Saponin is Quillaja P (Firmenich SA).

[4] = Example 10 control: phloretin 60 ppm without Berry extract, pH 2.8, 8° C., three months
[5] = Example 11 control: phloretin 60 ppm without saponin, 8° C., 5 months
[6] = Example 4 control: naringenin 60 ppm without Berry extract, pH 2.8, 8° C., 40 days
[7] = Example 5 control: naringenin 60 ppm without Berry extract or additive, 8° C., five months
[8] = Example 6 control: naringenin 60 ppm without black rice extract or additive, 8° C., five months
[9] = Example 7 control: naringenin 60 ppm without additive, 8° C., 5 months
[10] = Example 8 control: naringenin 60 ppm without Berry extract or additive, 8° C., five months
[11] = Example 9 control: naringenin 60 ppm without saponin, 8° C., five months
[12] = rhoifolin 20 ppm + 100 ppm additive alone
[13] = rhoifolin 20 ppm + 100 ppm black rice extract + 100 ppm additive
[14] = naringenin 60 ppm + 100 ppm Berry extract + 100 ppm additive, 8° C., five months
[15] = naringenin 60 ppm + 100 ppm additive alone, 8° C., 5 months
[16] = naringenin 60 ppm + 100 ppm black rice extract + 100 ppm additive, 8° C., five months
[17] = Example 2 control: rhoifolin 20 ppm without black rice extract or additive
[18] = Example 3 control: rhoifolin 20 ppm without additive
[19] = control: rhoifolin 20 ppm without extract, pH 2.8, room temperature

For `O=C(CCc1ccc(O)cc1)c1c(O)cc(O)cc1O` [Phloretin, phloretin], the “Fin. Conc. (ppm)” value [1, 4] was 33.8 ppm, the “Onset” value [1, 4] was 13.6 days and the “Fin. Conc. (ppm)” value [1, 5] was 33.8 ppm. For the same compound, the “Onset” value [1, 5] was 13.6 days.

With `O=C1C[C@@H](c2ccc(O)cc2)Oc2cc(O)cc(O)c21` [Naringenin, naringenin] the “Fin. Conc. (ppm)” value [2, 6] was 24.6 ppm, the “Onset” value [2, 6] was 0.3 days and the “Fin. Conc. (ppm)” value [2, 7] was 24.6 ppm. The “Onset” value [2, 7] was 0.3 days, the “Fin. Conc. (ppm)” value [2, 8] was 24.6 ppm and the “Onset” value [2, 8] was 0.3 days. For the same compound, the “Fin. Conc. (ppm)” value [2, 9] was 24.6 ppm, the “Onset” value [2, 9] was 0.3 days and the “Fin. Conc. (ppm)” value [2, 10] was 24.6 ppm. For the same compound, the “Onset” value [2, 10] was 0.3 days, the “Fin. Conc. (ppm)” value [2, 11] was 24.6 ppm and the “Onset” value [2, 11] was 0.3 days.

With `C=C1C[C@@]23CC[C@H]4[C@@](C)(CCC[C@@]4(C)C(=O)O[C@@H]4O[C@H](CO)[C@@H](O)[C@H](O)[C@H]4O)[C@@H]2CC[C@]1(O[C@@H]1O[C@H](CO)[C@@H](O)[C@H](O[C@@H]2O[C@H](CO)[C@@H](O)[C@H](O)[C@H]2O)[C@H]1O[C@@H]1O[C@H](CO)[C@@H](O)[C@H](O)[C@H]1O)C3` [Rebaudioside A, reference compound] the “50%” value [3, 12] was 13.6 days, the “Fin. Conc. (ppm)” value [3, 12] was 4.04 ppm and the “Onset” value [3, 12] was 7.5 days. The “50% (d), days for 50% crystallization of rhoifolin” value [3, 13] was 18.8 days, the “Fin. Conc. (ppm)” value [3, 13] was 5.96 ppm and the “Onset” value [3, 13] was 10.8 days. The “Fin. Conc. (ppm)” value [2, 14] was 34.1 ppm, the “Onset” value [2, 14] was 15.8 days and the “Fin. Conc. (ppm)” value [2, 15] was 31.0 ppm. For the same compound, the “Onset” value [2, 15] was 7.5 days, the “Fin. Conc. (ppm)” value [2, 16] was 35.4 ppm and the “Onset” value [2, 16] was 18.3 days.

With `C[C@@H]1O[C@@H](O[C@H]2[C@H](Oc3cc(O)c4c(=O)cc(-c5ccc(O)cc5)oc4c3)O[C@H](CO)[C@@H](O)[C@@H]2O)[C@H](O)[C@H](O)[C@H]1O` [Rhoifolin, rhoifolin] the “50% (d), days for 50% crystallization of rhoifolin” value [3, 17] was 8.2 days, the “Fin. Conc. (ppm)” value [3, 17] was 3.32 ppm and the “Onset” value [3, 17] was 4.1 days. The “50%” value [3, 18] was 8.2 days, the “Fin. Conc. (ppm)” value [3, 18] was 3.32 ppm and the “Onset” value [3, 18] was 4.1 days. The “Onset (d) of crystallization” value ([3]; control: rhoifolin 20 ppm without anthocyanin extract, citrate buffer pH 2.8, room temperature) was 4.1 days, the “50% Rem (d), days when only 50% of initial rhoifolin remained in solution” value [3, 19] was 8.2 days and the “Fin. Conc. (ppm) of rhoifolin in solution” value [3, 19] was 3.3 ppm.
